Test results taken from patent US6552007B2, “Use of somatostatin analogs for the delivery of anti-tumor drugs to tumor cells” (priority 2000, dated 2003).
Like-named read-outs stand apart in the source and are kept apart here. Where a SMILES comes first, the peptide text is derived from it. Bridges are numbered along the chain shown (N, C = ends). [ ]: non-standard residue; d: D form.

How the values were obtained:
[1] = molecular target: human somatostatin receptors subtype 2 (Homo sapiens, UniProt P30874); conditions: cited from earlier work
[2] = test system: MCF-7 cells; experiment: Cell death of MCF-7 cells after 1 day treatment; assay type: cell-based; conditions: 10^−5 M
[3] = test system: CHO cells; experiment: Cell death of CHO cells after 1 day treatment; assay type: cell-based; conditions: 10^−5 M
[4] = molecular target: human somatostatin receptors subtype 4 (Homo sapiens, UniProt P31391); conditions: cited from earlier work
[5] = test system: CHO cells; conditions: 30 min, 4° C.; for binding (fluorescence labeling) to CHO cells: 100 μg in 1 ml buffer; for binding to CHO cells at higher concentration of labeled octreotide: higher concentration (500 μg/ml)
Procedure: FIG. 2 depicts fluorescence micrographs of MCF-7 and CHO cells after incubation with fluorescin-octreotide at 4° C. for 30 min. […] Cell morphology was shown at A, C, E, and G. Bar=20 μm;
The MCF-7 cells and CHO cells are inclubated with 100 μg of fluorescein labeled octerotide in 1 ml of a buffer for 30 minutes at 4 ° C., after which the cells are washed with PBS, fixed with 4% paraformaldehye and subject to fluorescence microscopy.

[6] = test system: MCF-7 cells; experiment: Fluorescence microscopy binding of fluorescein-labeled octreotide to MCF-7 cells; conditions: 30 min, 4° C.; for binding (fluorescence labeling) to MCF-7 cells: 100 μg in 1 ml buffer
Procedure: Panels B, D, F and H which correspond to panels A, C, E and G, respectively, show the fluorescence labeled octreotide binding to the MCF-7 cells and the CHO. The MCF-7 cells and CHO cells are inclubated with 100 μg of fluorescein labeled octerotide in 1 ml of a buffer for 30 minutes at 4 ° C., after which the cells are washed with PBS, fixed with 4% paraformaldehye and subject to fluorescence microscopy.

[7] = test system: MCF-7 cells; experiment: Internalization of labeled octreotide by MCF-7 cells (somatostatin receptor-mediated endocytosis); assay type: cell-based; conditions: one hour incubation, 100 μg/ml, 37° C.
[8] = test system: MCF-7 cells; conditions: paclitaxel at 10^−6 M, 1 day
[9] = listed as fluorescin-octreotide

Sequence of human somatostatin receptors subtype 2 (P30874 whole entry): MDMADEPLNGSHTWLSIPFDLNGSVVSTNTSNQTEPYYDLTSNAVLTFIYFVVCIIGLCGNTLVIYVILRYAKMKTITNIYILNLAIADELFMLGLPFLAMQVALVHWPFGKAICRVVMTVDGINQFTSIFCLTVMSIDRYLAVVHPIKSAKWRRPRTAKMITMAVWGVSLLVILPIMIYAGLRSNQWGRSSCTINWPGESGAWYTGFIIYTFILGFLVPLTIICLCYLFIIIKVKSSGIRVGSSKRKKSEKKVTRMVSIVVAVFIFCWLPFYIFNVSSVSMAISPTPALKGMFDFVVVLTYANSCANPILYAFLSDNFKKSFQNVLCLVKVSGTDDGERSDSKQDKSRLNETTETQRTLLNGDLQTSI
Sequence of human somatostatin receptors subtype 4 (P31391 whole entry): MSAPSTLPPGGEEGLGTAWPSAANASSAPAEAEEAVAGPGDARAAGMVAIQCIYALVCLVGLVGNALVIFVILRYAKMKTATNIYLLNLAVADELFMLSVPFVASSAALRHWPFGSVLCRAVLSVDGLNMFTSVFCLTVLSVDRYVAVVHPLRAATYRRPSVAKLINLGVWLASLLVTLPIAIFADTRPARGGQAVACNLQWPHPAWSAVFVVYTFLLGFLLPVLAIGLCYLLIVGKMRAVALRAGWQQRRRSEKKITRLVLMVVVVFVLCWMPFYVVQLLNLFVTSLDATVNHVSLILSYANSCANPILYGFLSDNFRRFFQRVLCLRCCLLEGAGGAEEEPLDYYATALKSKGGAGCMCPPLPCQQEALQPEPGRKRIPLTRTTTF

C[C@@H](O)[C@@H]1NC(=O)[C@H](CCCCN)NC(=O)[C@@H](Cc2c[nH]c3ccccc23)NC(=O)[C@H](Cc2ccccc2)NC(=O)[C@@H](NC(=O)[C@H](N)Cc2ccccc2)CSSC[C@@H](C(=O)N[C@H](CO)[C@@H](C)O)NC1=O [octreotide, D-Phe-c[Cys-Phe-D-Trp-Lys-Thr-Cys]-Thr(ol)]
affinity to human somatostatin receptor subtype 2 [1]: high affinities

CC(=O)O[C@H]1C(=O)[C@@]2(C)[C@H]([C@H](OC(=O)c3ccccc3)[C@]3(O)C[C@H](OC(=O)[C@H](O)[C@@H](NC(=O)c4ccccc4)c4ccccc4)C(C)=C1C3(C)C)[C@]1(OC(C)=O)CO[C@@H]1C[C@@H]2O [paclitaxel, reference compound]
death of MCF-7 cells [2]: causes death of both MCF-7 cells and CHO cells
death of CHO cells [3]: causes death of both MCF-7 cells and CHO cells

CC(C)[C@@H]1NC(=O)[C@H](CCCCN)NC(=O)[C@@H](Cc2c[nH]c3ccccc23)NC(=O)[C@H](Cc2ccc(O)cc2)NC(=O)[C@@H](NC(=O)[C@H](N)Cc2ccccc2)CSSC[C@@H](C(=O)N[C@@H](Cc2c[nH]c3ccccc23)C(N)=O)NC1=O [vapreotide, D-Phe-c[Cys-Tyr-D-Trp-Lys-Val-Cys]-Trp-NH2] (H-[dF]CY[dW]KVCW-NH2; disulfide 2-7)
affinity to human somatostatin receptor subtype 4 [4]: high affinities

Fluorescein-Octreotide [labeled octreotide]
binding (fluorescence labeling) to CHO cells [5]: not to the CHO cells
binding (fluorescence labeling) to CHO cells [5, 9]: No labeling can be seen among the CHO cells
binding to CHO cells at higher concentration of labeled octreotide [5]: does not bind to the CHO cells
binding to CHO cells at higher concentration of labeled octreotide [5, 9]: No labeling
binding (fluorescence labeling) to MCF-7 cells [6]: binds to the MCF-7 cells
binding (fluorescence labeling) to MCF-7 cells [6, 9]: labeling is confined to the MCF-7 cell surface
binding to MCF-7 cells in the presence of excessive non-labeled octreotide ([6]; excessive amount (1,000 fold) of nonfluorescent octreotide): disappears
internalization into MCF-7 cytosol [7]: internalized into the MCF-7 cytosol
internalization into MCF-7 cytosol [7, 9]: internalization

Paclitaxel-Glutary 1-Octreotide [octreotide conjugated paclitaxel]
cell specificity (MCF-7 versus CHO cells) [2]: specific to MCF-7 cells
death of MCF-7 cells [2]: induces only the death of the MCF-7 cells
death of CHO cells [3]: not of the CHO cells
anti-tumor activity through disrupting microtubule formation, compared with non-conjugated paclitaxel [8]: same anti- tumor activity through disrupting microtubule formation
anti-tumor activity through disrupting microtubule formation, compared with non-conjugated paclitaxel ([8]; listed as octreotide-conjugated taxol): virtually retains the cellular functions of taxol
